Experimental data: patent EP0326331B1, “Substituted quinolines and cinnolines” (Dow AgroSciences LLC, priority 1988, dated 1989)
Where two headings read alike, the source gives them in different places.

Assays:
Assay type in all cases: in vivo
[1] = tested on: Phytophthora infestans; conditions: field test
[2] = tested on: Botrytis cinerea (gray mold); assay: Test 1 greenhouse foliar spray screen, gray mold on grape berries; conditions: for GRAY MOLD: disease control rating, spray on grape berries, 400 ppm (+++ at 100 ppm); for pest or weed control at 400 ppm: Botrytis cinerea, foliar, Test 1, spray on grape berries, disease control rating at 400 ppm / 100 ppm
[3] = tested on: Venturia inaequalis (apple scab); assay: Test 1 greenhouse foliar spray screen, apple scab on apple seedling; conditions: for APPL SCAB: disease control rating, foliar spray on apple seedling, 400 ppm (+++ at 100 ppm); for pest or weed control at 400 ppm: Venturia inaequalis, Test 1, foliar spray on apple seedling, disease control rating at 400 ppm / 100 ppm, read-out: APPL SCAB
[4] = tested on: corn rootworm; assay: Mite/insect screen, CRW; conditions: percent mortality, read-out: CRW RESULTS %
In short: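 Each compound, taken up in an emulsifier-containing acetone/alcohol mixture and diluted in water to the stated concentrations, was assessed for percent kill following standard exposure times.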

[5] = tested on: Puccinia recondita tritici (leaf rust); assay: Test 1 greenhouse foliar spray screen, leaf rust on wheat
[6] = tested on: southern armyworm (Spodopetra eridania Cramer); assay: Mite/insect screen, SAW; conditions: percent mortality
In short: (§1)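 Activity is expressed as percent mortality at the indicated spray concentrations. Plants are sprayed to runoff on upper and lower leaf surfaces with aqueous dilutions of an acetone/alcohol emulsifiable formulation, then dried for one hour.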

[7] = tested on: Pseudoperonospora cubensis (downy mildew); assay: Test 1 greenhouse foliar spray screen, downy mildew on squash
[8] = tested on: Pyricularia oryzae (rice blast); assay: whole plant or invertebrate; conditions: for activity against rice blast: summary statement in the description
[9] = tested on: Twospotted spider mites (Tetranychus urticae Koch); assay: Mite/insect screen, SM
In short: as §1

[10] = tested on: Erysiphe graminis tritici (powdery mildew); assay: Test 1 greenhouse foliar spray screen, powdery mildew on wheat
[11] = tested on: Pyrenophora teres; assay: Field tests against plant pathogens; conditions: field test, crop barley
Description: (§2) Selected compounds were field tested against a variety of plant pathogens. […]

[12] = tested on: melon aphids (Aphis gossypii Glover); assay: Mite/insect screen, MA; conditions: percent mortality
In short: as §1

[13] = tested on: Septoria tritici (leaf blotch); assay: Test 1 greenhouse foliar spray screen, leaf blotch on wheat; conditions: for LEAF BLOT: disease control rating, foliar spray on wheat, 400 ppm (+++ at 100 ppm); for pest or weed control at 400 ppm: Zymoseptoria tritici, Test 1, foliar spray on wheat, disease control rating at 400 ppm / 100 ppm, read-out: LEAF BLOT
[14] = tested on: Cercospora beticola (leaf spot); assay: Test 1 greenhouse foliar spray screen, leaf spot on sugar beet; conditions: for LEAF SPOT: disease control rating, foliar spray on sugar beet, 400 ppm (+++ at 100 ppm); for pest or weed control at 400 ppm: Cercospora beticola, Test 1, foliar spray on sugar beet, disease control rating at 400 ppm / 100 ppm
[15] = tested on: Rhynchosporium secalis; assay: Field tests against plant pathogens; conditions: field test, crop barley
Description: as §2

[16] = tested on: Pseudocercosporella herpotrichoides; assay: Field tests against plant pathogens; conditions: field test, crop wheat
Description: as §2

[17] = tested on: Erysiphe graminis tritici; assay: Field tests against plant pathogens; conditions: field test, crop wheat
Description: as §2

[18] = tested on: Sphaerotheca fuliginea; assay: Field tests against plant pathogens; conditions: field test, crop cucumber
Description: as §2

[19] = tested on: Plasmopara viticola; assay: Field tests against plant pathogens; conditions: field test, crop grape
Description: as §2

[20] = tested on: plant pathogens; assay: Fungicidal efficacy against a broad spectrum of plant pathogens (summary of screen); conditions: summary statement in the description
[21] = disease control rating, foliar spray on wheat, 400 ppm (+++ at 100 ppm)
[22] = Spodoptera eridania, SAW, SM & MA RATE 200 PPM, read-out: SAW RESULTS %
[23] = disease control rating, foliar spray on squash, 400 ppm (+++ at 100 ppm)
[24] = disease control rating, foliar spray on rice, 400 ppm (+++ at 100 ppm)
[25] = Tetranychus urticae, percent mortality, SAW, SM & MA RATE 200 PPM, read-out: SM RESULTS %
[26] = Aphis gossypii, SAW, SM & MA RATE 200 PPM, read-out: MA RESULTS %
[27] = Spodoptera eridania, foliar, rate 200 ppm, foliar spray on squash, read-out: SAW RESULTS %
[28] = summary statement in the description
[29] = Tetranychus urticae, foliar, percent mortality, rate 200 ppm, foliar spray on squash, read-out: SM RESULTS %
[30] = Aphis gossypii, foliar, rate 200 ppm, foliar spray on squash, read-out: MA RESULTS %
[31] = Test 1, foliar spray on wheat, disease control rating at 400 ppm / 100 ppm
[32] = rate 400 ppm, foliar spray on squash

Row | Compound | GRAY MOLD [2] | APPL SCAB [3] | mortality at 12 ppm ([4]; CRW RATE 12.00 PPM) | LEAF RUST [5, 21] | mortality at 200 ppm [6, 22] | DOWN MDEW [7, 23] | RICE BLAST [8, 24] | mortality at 200 ppm [9, 25] | POWD MDEW [10, 21] | pathogens against which compounds of the invention showed activity [11] | mortality at 200 ppm [12, 26] | LEAF BLOT [13] | LEAF SPOT [14] | activity against rice blast [8] | pathogens against which compounds of the invention showed activity [15] | pathogens against which compounds of the invention showed activity [16] | pathogens against which compounds of the invention showed activity [17] | pathogens against which compounds of the invention showed activity [18] | mortality at 12 ppm ([4]; CRW rate 12.00 ppm) | mortality at 200 ppm [6, 27] | also measured
1 | c1ccc(CCNc2ccnc3ccccc23)cc1 [Example 2, N-(2-phenylethyl)-4-quinolinamine] | - (0-19% control at 400 ppm) | - (0-19% control at 400 ppm) | 0% | - (0-19% control at 400 ppm) | 0% | +++ (90-100% control at 100 ppm) | - (0-19% control at 400 ppm) | 0% | - (0-19% control at 400 ppm) | Pyrenophora teres | 0% | - (0-19% control at 400 ppm) |  |  |  |  |  |  |  |  | pathogens against which compounds of the invention showed activity ([1]; crop potato): Phytophthora infestans; pathogens against which compounds of the invention showed activity ([1]; crop tomato): Phytophthora infestans
2 | CC(=O)N(CCc1ccc(Cl)cc1)c1ccnc2c(F)cccc12 [Example 10, N-[2-(4-chlorophenyl)ethyl]-N-(8-fluoro-4-quinolinyl)acetamide] | - (0-19% control at 400 ppm) | - (0-19% control at 400 ppm) | 0% | +++ (90-100% control at 100 ppm) | 0% | ++ (90-100% control at 400 ppm) | +++ (90-100% control at 100 ppm) | 0% | ++ (90-100% control at 400 ppm) | Pyrenophora teres | 0% | +++ (90-100% control at 100 ppm) | +++ (90-100% control at 100 ppm) | particularly excellent activity | Rhynchosporium secalis | Pseudocercosporella herpotrichoides | Erysiphe graminis tritici | Sphaerotheca fuliginea |  |  | mortality at 24 ppm ([4]; CRW RATE 24.00 PPM): 0%; mortality at 400 ppm ([6]; Spodoptera eridania, SAW, SM & MA RATE 400 PPM, read-out: SAW RESULTS %): 0%; mortality at 400 ppm ([9]; Tetranychus urticae, percent mortality, SAW, SM & MA RATE 400 PPM, read-out: SM RESULTS %): 0%; mortality at 400 ppm ([12]; Aphis gossypii, SAW, SM & MA RATE 400 PPM, read-out: MA RESULTS %): 0%
3 | Fc1cccc2c(NCCc3cccs3)ccnc12 [Example 173, 8-fluoro-N-[2-(2-thienyl)ethyl]-4-quinolinamine] | - (0-19% control at 400 ppm) | - (0-19% control at 400 ppm) |  | ++ (90-100% control at 400 ppm) |  | +++ (90-100% control at 100 ppm) | + (20-89% control at 400 ppm) |  | + (20-89% control at 400 ppm) |  |  | + (20-89% control at 400 ppm) | +++ (90-100% control at 100 ppm) |  |  |  |  |  | 0% | 0% | activity against downy mildew [7, 28]: particularly excellent activity; mortality at 200 ppm [9, 29]: 0%; pathogens against which compounds of the invention showed activity [19]: Plasmopara viticola; mortality at 200 ppm [12, 30]: 0%
4 | Fc1cccc2c(OCCc3ccc(-c4ccccc4)cc3)ccnc12 [Example 200] |  |  |  |  |  |  |  |  |  | Pyrenophora teres |  |  |  | particularly excellent activity | Rhynchosporium secalis | Pseudocercosporella herpotrichoides | Erysiphe graminis tritici | Sphaerotheca fuliginea | 0% | 0% | pest or weed control at 400 ppm [2]: 0 to 19%; pest or weed control at 400 ppm [3]: 20 to 89%; mortality at 24 ppm ([4]; CRW rate 24.00 ppm): 0%; pest or weed control at 400 ppm [14]: 20 to 89%; LEAF RUST [5, 31]: +++ (90-100% control at 100 ppm); SAW RESULTS % [6, 32]: 50%; DOWN MDEW ([7]; Test 1, foliar spray on squash, disease control rating at 400 ppm / 100 ppm): + (20-89% control at 400 ppm); RICE BLAST ([8]; Test 1, foliar spray on rice, disease control rating at 400 ppm / 100 ppm): +++ (90-100% control at 100 ppm); SM RESULTS % ([9]; percent mortality, rate 200 ppm, foliar spray on squash): 100%; SM RESULTS % ([9]; percent mortality, rate 400 ppm, foliar spray on squash): 100%; activity as miticides [9, 28]: particularly excellent activity; POWD MDEW [10, 31]: +++ (90-100% control at 100 ppm); MA RESULTS % ([12]; rate 200 ppm, foliar spray on squash): 100%; MA RESULTS % [12, 32]: 100%; pest or weed control at 400 ppm [13]: 90 to 100%
5 | Fc1cccc2c(OCCc3ccccc3)ccnc12 [Example 219, 8-fluoro-4-(2-phenylethoxy)quinoline] |  |  |  |  |  |  |  |  |  | Pyrenophora teres |  |  |  |  | Rhynchosporium secalis | Pseudocercosporella herpotrichoides | Erysiphe graminis tritici | Sphaerotheca fuliginea | 0% | 0% | pest or weed control at 400 ppm [2]: 0 to 19%; pest or weed control at 400 ppm [3]: 20 to 89%; pest or weed control at 400 ppm [14]: 20 to 89%; pest or weed control at 400 ppm ([5]; Puccinia recondita, foliar, Test 1, foliar spray on wheat, disease control rating at 400 ppm / 100 ppm): 90 to 100%; pest or weed control at 400 ppm ([7]; Pseudoperonospora cubensis, foliar, Test 1, foliar spray on squash, disease control rating at 400 ppm / 100 ppm, read-out: DOWN MDEW): 90 to 100%; pest or weed control at 400 ppm ([8]; Pyricularia oryzae, foliar, read-out: RICE BLAST, Test 1, foliar spray on rice, disease control rating at 400 ppm / 100 ppm): 90 to 100%; mortality at 200 ppm [9, 29]: 0%; pest or weed control at 400 ppm ([10]; Blumeria graminis, foliar, Test 1, foliar spray on wheat, disease control rating at 400 ppm / 100 ppm, read-out: POWD MDEW): 90 to 100%; activity against a broad spectrum of plant pathogens [20]: particularly excellent activity; mortality at 200 ppm [12, 30]: 0%; pest or weed control at 400 ppm [13]: 20 to 89%
